# Like-named read-outs stand apart in the source and are kept apart here.
# Key:
# [1] = system: acetic acid-induced writhing responses; assay: Acetic acid writhing test (analgesic testing); type: in vivo; conditions: mice; for Number of writhing responses: counted for 10 minutes, average; for Analgesic effect, suppression of the number of writhing responses (in words): oral administration
# Description: Analgesic testing was carried out via common mice-based acetic acid writhing test. Compounds were administered orally in amounts of 30 mg/kg to groups each consisting of 10 or 11 mice, and a substance that applies pain stimuli, i.e., a 0.7% acetic acid solution, was intraperitoneally administered 30 minutes thereafter (0.1 ml/10 g). The counting of mice-specific writhing responses was initiated 10 minutes after the administration of the acetic acid solution, and the counting was continued for 10 minutes. This test utilizes the fact that a distinct symptom of agony, that is a writhing response, occurs upon administration of a stimulatory substance, such as an acetic acid solution, to a mouse. […] When compound 1 was administered in amounts of 30 mg/kg, however, the number of writhing responses was 5 on average. When compound 1 was administered in amounts of 10 mg/kg, the number of writhing responses was 10 on average. When compound 14 was administered in amounts of 30 mg/kg, the number of writhing responses was 6 on average.
# [2] = system: carrageenin-induced edema in footpads of hind paws; assay: Carrageenin edema test (antiinflammatory testing); type: in vivo, rat; conditions: 30 mg/kg orally; 3 hours after administration of 1% carrageenin
# Description: Antiinflammatory testing was carried out via a rat-based carrageenin edema test. Compounds were orally administered in amounts of 30 mg/kg to groups each consisting of 5 to 8 […], and an edema-inducing substance (a 1% carrageenin solution) was administered hypodermically to footpads of hind paws 1 hour later (0.1 ml/mouse). Edema thickness in the footpads of hind paws was measured 1, 2, and 3 hours thereafter.
# gastric ulcer = assay: Gastric ulcer formation; type: in vivo; conditions: 30 mg/kg orally, mice, 5 hours later
# Description: Compound 1 was orally administered in amounts of 30 mg/kg to groups each consisting of 3 to 5 mice, mice were sacrificed with the use of ether 5 hours later, and the stomachs were extracted. The extracted stomachs were opened, each entire stomach was photographed using a stereoscopic microscope, and the lengths of the gastric ulcers were determined.
# cyclooxygenase-1 (COX-1) = molecular target: T1, cyclooxygenase-1 (COX-1) (Ovis aries, UniProt P05979); assay: Cayman Cyclooxygenase Inhibitor Screening Assay Kit (760111), COX-1; type: biochemical; conditions: for inhibition at 100 µM: read-out: Inhibitory activity of 100 μM compound (%) COX-1
# T1 construct: purchased Cayman 760111
# T1 sequence (P05979 25-600): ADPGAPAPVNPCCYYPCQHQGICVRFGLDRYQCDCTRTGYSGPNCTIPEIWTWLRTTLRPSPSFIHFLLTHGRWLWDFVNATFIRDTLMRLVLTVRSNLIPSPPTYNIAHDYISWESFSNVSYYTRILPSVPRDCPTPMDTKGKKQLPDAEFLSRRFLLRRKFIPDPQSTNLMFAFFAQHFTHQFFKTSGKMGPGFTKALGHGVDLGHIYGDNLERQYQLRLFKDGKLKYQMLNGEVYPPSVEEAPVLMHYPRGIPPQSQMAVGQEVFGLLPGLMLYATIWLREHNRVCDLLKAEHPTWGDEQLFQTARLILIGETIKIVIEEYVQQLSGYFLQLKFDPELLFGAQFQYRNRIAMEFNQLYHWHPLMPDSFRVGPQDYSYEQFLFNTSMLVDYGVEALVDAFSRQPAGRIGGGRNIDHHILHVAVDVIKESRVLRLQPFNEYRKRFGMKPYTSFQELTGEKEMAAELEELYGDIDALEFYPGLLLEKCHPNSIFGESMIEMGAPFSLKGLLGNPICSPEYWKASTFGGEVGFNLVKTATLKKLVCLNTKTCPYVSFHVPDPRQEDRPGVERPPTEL
# cyclooxygenase 2 (COX-2) = molecular target: T2, cyclooxygenase 2 (COX-2) (Ovis aries, UniProt P79208); assay: Cayman Cyclooxygenase Inhibitor Screening Assay Kit (760111), COX-2; type: biochemical; conditions: for inhibition at 100 µM: read-out: Inhibitory activity of 100 μM compound (%) COX-2
# T2 construct: purchased Cayman 760111
# T2 sequence (P79208 17-603): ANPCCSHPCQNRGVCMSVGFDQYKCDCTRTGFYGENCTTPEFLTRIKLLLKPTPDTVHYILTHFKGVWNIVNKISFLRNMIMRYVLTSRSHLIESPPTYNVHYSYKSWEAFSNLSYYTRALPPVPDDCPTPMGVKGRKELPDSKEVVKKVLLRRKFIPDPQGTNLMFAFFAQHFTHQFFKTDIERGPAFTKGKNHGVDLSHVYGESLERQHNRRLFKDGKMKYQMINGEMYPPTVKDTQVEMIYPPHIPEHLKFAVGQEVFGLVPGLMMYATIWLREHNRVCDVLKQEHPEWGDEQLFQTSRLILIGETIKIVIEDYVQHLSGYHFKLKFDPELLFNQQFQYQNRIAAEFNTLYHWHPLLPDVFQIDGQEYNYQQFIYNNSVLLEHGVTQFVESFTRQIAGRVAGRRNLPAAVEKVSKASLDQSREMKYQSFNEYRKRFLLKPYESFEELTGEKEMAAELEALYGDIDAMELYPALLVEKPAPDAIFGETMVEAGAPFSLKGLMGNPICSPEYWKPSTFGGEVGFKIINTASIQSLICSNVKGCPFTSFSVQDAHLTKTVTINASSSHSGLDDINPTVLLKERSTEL
# [3] = 10 mg/kg orally, 0.7% acetic acid i.p.
# [4] = 30 mg/kg orally, 0.7% acetic acid i.p. 30 minutes later
SMILES,"Number of writhing responses [1, 3]","Number of writhing responses [1, 4]",Inhibitory activity against edema (%) [2] [%],Gastric ulcer formation (in words) (gastric ulcer),Total length of gastric ulcer (mm) (gastric ulcer),IC50 (cyclooxygenase-1 (COX-1)) [µM],inhibition at 100 µM (cyclooxygenase-1 (COX-1)) [%],IC50 (cyclooxygenase 2 (COX-2)) [µM],inhibition at 100 µM (cyclooxygenase 2 (COX-2)) [%],"Analgesic effect, suppression of the number of writhing responses (in words) [1]","Death of mice (1 g/kg intraperitoneally, 3 mice, observed for 10 days)","Death of mice (300 mg/kg intraperitoneally, 5 mice, observed for 14 days)"
"CC(=O)Oc1ccccc1C(=O)O [Aspirin, aspirin, reference compound]",17,15,16,significant gastric ulcers,1.61,–,–,–,–,–,–,–
Nc1ccc(NC(=O)c2ccc(C(F)(F)F)cc2)nc1 [Compound 1],10,5,31,not observed,0.09,1,98,> 100,24,significantly suppresses,did not die,–
Nc1ccc(C(=O)Nc2ccc(C(F)(F)F)cn2)cc1 [Compound 14],–,6,–,not observed,0.01,30,65,> 100,15,significantly suppresses,–,did not die
